In PubChem BioAssay AID624167 (Sanford-Burnham Center for Chemical Genomics, 2012):
Active and inactive are the calls of the source.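 How the source made its calls: active means mean IC50 for reducing PEG3 promoter reporter signal at or below a set limit, with IC50 above the limit in both counter screens; inactive means the rest, including counter screen hits.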

Legend:
PEG-3 [1] = target: PEG-3 (UniProt Q6IN02); assay: Peg3 promoter luciferase inhibitors, potency, dose response, cell-based, HeLa, CREF/GAPDH counter-screen panel (AID 624167); conditions: HeLa PEG-Prom luciferase reporter, overnight, CREF/GAPDH counter-screens, mean of runs
Sequence of PEG-3 (UniProt Q6IN02) (Q6IN02 whole entry, looked up): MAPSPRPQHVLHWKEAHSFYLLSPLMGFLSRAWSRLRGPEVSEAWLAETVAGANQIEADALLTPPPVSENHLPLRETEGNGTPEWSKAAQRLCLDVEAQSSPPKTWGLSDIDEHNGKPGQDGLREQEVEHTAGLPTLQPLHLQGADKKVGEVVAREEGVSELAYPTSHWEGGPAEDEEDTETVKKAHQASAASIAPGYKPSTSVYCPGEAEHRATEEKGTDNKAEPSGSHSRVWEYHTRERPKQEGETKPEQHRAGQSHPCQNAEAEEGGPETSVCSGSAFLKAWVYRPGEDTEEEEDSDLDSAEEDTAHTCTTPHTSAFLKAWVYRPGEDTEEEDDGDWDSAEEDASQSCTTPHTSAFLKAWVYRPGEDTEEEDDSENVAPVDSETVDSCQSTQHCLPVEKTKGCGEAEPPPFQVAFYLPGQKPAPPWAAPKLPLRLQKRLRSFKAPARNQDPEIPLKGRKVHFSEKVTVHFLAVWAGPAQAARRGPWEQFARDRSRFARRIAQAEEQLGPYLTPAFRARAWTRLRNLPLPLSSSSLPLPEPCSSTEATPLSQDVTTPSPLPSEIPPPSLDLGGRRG

PEG-3 [2] = assay: as above; conditions: HeLa PEG-Prom luciferase reporter, overnight, CREF/GAPDH counter-screens
[3] = run 1, dose range 1, individual replicate IC50 per panel
[4] = run 2, dose range 1, individual replicate IC50 per panel

SMILES | IC50 (PEG-3 [1]) | IC50 (PEG-3 [2]; [3]) [µM] | IC50 (PEG-3 [2]; [4]) [µM]
Cc1c(OCC(=O)NC2CC(C)(C)NC(C)(C)C2)ccc2c1oc(=O)c1ccccc12 | inactive | 43.5 | > 100
NC1=NC[C@H](Cc2ccccc2)N1CCc1cc(C(F)(F)F)cc(C(F)(F)F)c1 | inactive | 46.5 | 17.1
Cc1cnc(NC(=O)C2CC(=O)N(c3cccc(Cl)c3)C2)s1 (stereo not given) | 13.6 µM | 23.5 | 3.78
N#Cc1cc2c(nc1SC1CC(=O)N(c3ccccc3)C1=O)CCC2 (stereo not given) | inactive | > 100 | 1.02
COc1cc(CNC(C)(C)CO)cc(Br)c1OCc1ccc(Cl)cc1 | 16.6 µM | 20.6 | 12.6
O=C(/C=C/c1cc(Br)ccc1O)c1ccco1 | 12.3 µM | 16.1 | 8.44
CN1Cc2c(N3CCOCC3)nc3sc(C(=O)c4ccc(Br)cc4)c(N)c3c2CC1(C)C | 15.2 µM | 18.8 | 11.6
COc1ccc(-c2cc(C(=O)N(C)Cc3ccc(OC)c(OC)c3OC)c3ccccc3n2)cc1OC | inactive | 13.4 | 30.9
Oc1ccc(C[C@H]2CNCCN2CCc2cc(C(F)(F)F)cc(C(F)(F)F)c2)cc1 | inactive | 26.7 | 19.8
O=C(Cn1ncc(Cl)c(Cl)c1=O)N1CCN(Cc2ccccc2)CC1 | 14 µM | 19.5 | 8.48
CCOC(=O)C1CCN(c2cc3c(cc2NC(=O)c2ccccc2OCC)n(C)c(=O)n3C)CC1 | inactive | 35.7 | > 100
Cc1ccc(C(=O)N2CCN(c3ccc([N+](=O)[O-])c(NCc4cccnc4)c3)CC2)cc1 | 16.7 µM | 10.6 | 22.7
N#C/C(=C\c1cccc([N+](=O)[O-])c1)C(=O)NCc1ccc(Cl)cc1 | 14 µM | 14.7 | 13.4
Cc1ccc(N2CC(C(=O)Nc3nccs3)CC2=O)cc1Cl (stereo not given) | inactive | 33 | 10.5
COc1ccc(C(=O)Nc2cccc(C(=O)N/N=C/c3ccc(OC)cc3OC)c2)cc1 | inactive | 28.1 | 38
CC(C)(C)c1ccc(CN2N=Nc3ccccc3S2(=O)=O)cc1 | inactive | 30.6 | 40.1
CCCCC(=O)NC(c1ccccc1Cl)c1ccc2cccnc2c1O (stereo not given) | inactive | 2.98 | > 100
Cn1cccc1/C=C1/C(=O)NC(=S)N(Cc2ccc(F)cc2)C1=O | inactive | 31.9 | 38.1
CCCCNc1c(-c2cccc(Sc3ccc(OC)cc3)c2)nc2ccccn12 | 13.6 µM | 16.7 | 10.6
Cc1cccc(C)c1-n1nnnc1C(c1ccccc1OC(F)(F)F)N1CCC(n2c(=O)[nH]c3ccccc32)CC1 (stereo not given) | 12.7 µM | 20.8 | 4.64
CN(C)c1ccc(/C=N/NC(=O)c2nnn(-c3nonc3N)c2COc2ccc(F)cc2)cc1 | > 100 µM (inactive) | > 100 | > 100
COc1cc(N=Nc2c(O)c3ccccc3[nH]c2=O)c(OC)cc1N=Nc1ccccc1 | > 100 µM (inactive) | > 100 | > 100

SMILES | IC50 (PEG-3 [1]) | IC50 (PEG-3 [2]; [3]) [µM] | IC50 (PEG-3 [2]; [4]) [µM]
Cc1ccc(NCCN(C)C)c2c(=O)c3cc(O)ccc3sc12 | 13.6 µM | 19.1 | 8.02
COc1ccc2c(c1)[nH]c1c(=O)n(/N=C/C3C(C)C=C(C)CC3C)c(=O)[nH]c12 (stereo not given) | > 100 µM (inactive) | > 100 | > 100
CCN(CC)CCNC(=O)c1ccc(NC(=O)c2cccc(S(=O)(=O)N(C)C3CCCCC3)c2)cc1 | inactive | 29.1 | 25.6
CCN1CCN(CCNC(=O)c2ccc(/C=C3\Sc4ccccc4N(Cc4ccccc4F)C3=O)cc2)CC1 | 14.9 µM | 20.2 | 9.63
O=Cc1cn(Cc2cccc(F)c2)c2ccccc12 | inactive | 22.6 | 38.8
CN(C)CCNc1ccc2ncn3c4ccc(O)cc4c(=O)c1c23 | inactive | 54 | < 0.2
COC(=O)C1=C(C)N(Cc2ccccc2)C(=NCCc2c[nH]c3ccccc23)N[C@H]1c1cccc(C(F)(F)F)c1 | inactive | 17.8 | 23
COC(=O)C1=C(C)N(Cc2ccccc2)C(=NCc2cccc(Cl)c2)N[C@H]1c1ccccc1 | 15.9 µM | 19.1 | 12.7
CN(C)CCNc1ccc(CO)c2oc3ccc(O)cc3c(=O)c12 | 16.9 µM | 20.4 | 13.5
O=C1NC(=O)N(Cc2ccco2)C(=O)/C1=C/C=C/c1ccco1 | 13.7 µM | 14.8 | 12.6
CCCc1ccc(C(=O)O/N=C(\N)c2ccccn2)cc1 | inactive | 36.5 | 16.6
Cc1c(C(=O)N2CCN(c3ccc(F)cc3)CC2)sc2ncnc(N3CCN(c4ccccn4)CC3)c12 | 13.7 µM | 11.9 | 15.6
Cc1cc(C)c2sc(N(CCCN(C)C)C(=O)c3ccc(S(=O)(=O)N4CCCc5ccccc54)cc3)nc2c1 | 14.7 µM | 20.7 | 8.73
COCCn1c(C)cc(C(=O)COC(=O)c2ccccc2Br)c1C | inactive | 32.1 | 53.3
COc1ccc(C(O)(CC(C)C)C(CN2CCOCC2)c2ccccc2)cc1 (stereo not given) | inactive | > 100 | 6.84
CCn1cc(C(=O)NCCC(C)C)c(=O)c2cc(F)c(N3CCN(C(=O)c4ccco4)CC3)cc21 | inactive | 37.8 | > 100
CC(=O)N1CCN(c2cc(-c3ccccc3)nc3cc(-c4cccc(Cl)c4)nn23)CC1 | inactive | 23.8 | 18.3
COc1ccc(CN(C)C(=O)c2cc(-c3ccc(C)cc3C)nc3ccccc23)c(OC)c1OC | 19.8 µM | 14.9 | 24.8
O=c1[nH]c(=O)n(C2OC(CO)C(O)C2O)cc1F (stereo not given) | 14.3 µM | 25.6 | 3.07
CCCCCCCCCCCCCCC(O)C[N+](C)(CCO)CCO (stereo not given) | 14.3 µM | 17.7 | 11
Cc1cc(/C=c2/sc3nc4ccccc4n3c2=O)c(C)n1-c1ccccn1 | inactive | 21.7 | 30.9
O=c1cc2oc3cc(O)c(O)cc3c(-c3ccccc3[N+](=O)[O-])c-2cc1O | 19 µM | 19 | 19.1

SMILES | IC50 (PEG-3 [1]) | IC50 (PEG-3 [2]; [3]) [µM] | IC50 (PEG-3 [2]; [4]) [µM]
CNCC[C@H](Oc1cccc2ccccc12)c1cccs1 | 17.7 µM | 18.8 | 16.6
CN(C(=O)OC(C)(C)C)c1ccc(-c2nc3ccccc3s2)cc1 | 2.31 µM | < 0.2 | 4.43
CC(=O)c1ccc(Nc2cc(C)nc3ccc(C)cc23)cc1 | 13.3 µM | 21.8 | 4.69
Fc1ccc([C@@H]2CCNC[C@H]2COc2ccc3c(c2)OCO3)cc1 | 19.5 µM | 20 | 19
Cc1ccc(C(=O)N/C(=C\c2ccc(-c3cccc([N+](=O)[O-])c3)o2)C(=O)NCCCN(C)C)cc1 | 17 µM | 18.6 | 15.3
O=C1NC(=S)N(c2ccccc2F)C(=O)/C1=C\c1cccs1 | 16.7 µM | 19.1 | 14.2
COCc1ccc(CN2CCC(C(=O)Nc3cccc(-c4cccc(Cl)c4)c3)CC2)o1 | 13.3 µM | 16.8 | 9.78
COc1ccc(-n2nnnc2C(C2CC2)N2CCC(n3c(=O)[nH]c4ccccc43)CC2)cc1 (stereo not given) | inactive | 58.3 | 14.7
CCC1(c2ccccc2)NC(=O)N(CC(=O)Nc2cc(S(=O)(=O)N3CCCCCC3)ccc2OC)C1=O (stereo not given) | 13.7 µM | 13.9 | 13.5
Cc1cc(C)nc(NC(=O)c2c(F)c(F)c(F)c(C(=O)Nc3cc(C)cc(C)n3)c2F)c1 | 19.8 µM | 20.1 | 19.5
CCOC(=O)c1cnc2c(cnn2C)c1NCCCN(C)C | inactive | 18.9 | 28.8
CCCCNC(=O)C(C)N(CCN(C)C)C(=O)CCCCCN1C(=O)NC(c2ccc(Cl)cc2)C(C(=O)OCc2ccccc2)=C1C (stereo not given) | 13.2 µM | 16.2 | 10.1
O=S(=O)(NC1CC(NS(=O)(=O)OCC(Cl)(Cl)Cl)C2CCCCC12)OCC(Cl)(Cl)Cl (stereo not given) | 11.4 µM | 10.8 | 11.9
CC(=O)Nc1cccc(-c2ccnc3c2CC(C)(C(=O)Nc2cccc(OC(F)(F)F)c2)O3)c1 (stereo not given) | 17.3 µM | 8.81 | 25.7
COc1ccc(-c2cc(C(F)F)n3ncc(C(=O)n4ccnc4C)c3n2)cc1 | 12.5 µM | 18.3 | 6.84
CN(C)CCNc1ccc2nnn3c4ccc(O)cc4c(=O)c1c23 | inactive | 45.4 | 43
COc1ccc(/C=C/C(=O)c2ccc3c(c2)OCCO3)cc1[N+](=O)[O-] | 17 µM | 17.2 | 16.7
O=c1c2ccccc2oc2cc(C#CC3(O)CCCCC3)ccc12 | inactive | 27.8 | > 100
CCc1ccc(NC(=O)CSc2nc3ccccc3c(=O)n2CCCN2CCC(C)CC2)cc1 | 17.3 µM | 19.8 | 14.8
CCOc1ccc2nc(N(CCCN(C)C)C(=O)c3ccc(C(=O)c4ccccc4)cc3)sc2c1 | 13.9 µM | 20.3 | 7.58
CCCCCCCCCC[N+](C)(C)CC/C=C1/c2ccccc2Sc2ccc(Cl)cc21 | 11.7 µM | 14.9 | 8.43
